Data taken from PMC9848257, “Design and synthesis of novel rigid dibenzo[b,f]azepines through ring closure technique as promising anticancer candidates against leukaemia and acting as selective topoisomerase II inhibitors and DNA intercalators” (Journal of Enzyme Inhibition and Medicinal Chemistry, 2023).

Columns and labels:
[1] = system: HCT-116; experiment: NCI-60 one-dose screen, HCT-116; type: cell-based; details: Homo sapiens; HCT-116, colon cancer; single dose 10 μM; read-out: Growth inhibition %
Procedure: (§1) Anti-proliferative effects of the counterparts 4a–g and 5a–g were screened against 60 human cancer cell lines, following the Developmental Therapeutics Program protocol, National Cancer Institute[35].
(§2) The anti-tumour activity of the fourteen synthesised congeners was investigated at the NCI against a panel of 60 cancer cell lines (NCI-60 Cell One-Dose Screen). The tested dibenzo[b,f]azepine derivatives were screened at a single dose level (10 μM), Table 1.

[2] = system: TK-10; experiment: NCI-60 one-dose screen, TK-10; type: cell-based; details: Homo sapiens; TK-10, renal cancer; single dose 10 μM; read-out: Growth inhibition %
Procedure: as §1, §2

[3] = system: OVCAR-3; experiment: NCI-60 one-dose screen, OVCAR-3; type: cell-based; details: Homo sapiens; OVCAR-3, ovarian cancer; single dose 10 μM; read-out: Growth inhibition %
Procedure: as §1, §2

[4] = system: NCI-H322M; experiment: NCI-60 one-dose screen, NCI-H322M; type: cell-based; details: Homo sapiens, non-small cell lung cancer, single dose 10 μM, read-out: Growth inhibition %
Procedure: as §1, §2

[5] = system: MDA-MB-435; experiment: NCI-60 one-dose screen, MDA-MB-435; type: cell-based; details: Homo sapiens; MDA-MB-435, melanoma; single dose 10 μM; read-out: Growth inhibition %
Procedure: as §1, §2

[6] = system: CCRF-CEM; experiment: NCI-60 one-dose screen, CCRF-CEM; type: cell-based; details: Homo sapiens, leukaemia, single dose 10 μM, read-out: Growth inhibition %
Procedure: as §1, §2

[7] = system: MALME-3M; experiment: NCI-60 one-dose screen, MALME-3M; type: cell-based; details: Homo sapiens, melanoma, single dose 10 μM, read-out: Growth inhibition %
Procedure: as §1, §2

[8] = system: COLO 205; experiment: NCI-60 one-dose screen, COLO 205; type: cell-based; details: Homo sapiens; COLO 205, colon cancer; single dose 10 μM; read-out: Growth inhibition %
Procedure: as §1, §2

[9] = system: UACC-257; experiment: NCI-60 one-dose screen, UACC-257; type: cell-based; details: Homo sapiens; UACC-257, melanoma; single dose 10 μM; read-out: Growth inhibition %
Procedure: as §1, §2

[10] = system: SF-268; experiment: NCI-60 one-dose screen, SF-268; type: cell-based; details: Homo sapiens; SF-268, CNS cancer; single dose 10 μM; read-out: Growth inhibition %
Procedure: as §1, §2

[11] = system: NCI/ADR-RES; experiment: NCI-60 one-dose screen, NCI/ADR-RES; type: cell-based; details: Homo sapiens, ovarian cancer, single dose 10 μM, read-out: Growth inhibition %
Procedure: as §1, §2

[12] = system: NCI-H23; experiment: NCI-60 one-dose screen, NCI-H23; type: cell-based; details: Homo sapiens; NCI-H23, non-small cell lung cancer; single dose 10 μM; read-out: Growth inhibition %
Procedure: as §1, §2

[13] = system: OVCAR-4; experiment: NCI-60 one-dose screen, OVCAR-4; type: cell-based; details: Homo sapiens; OVCAR-4, ovarian cancer; single dose 10 μM; read-out: Growth inhibition %
Procedure: as §1, §2

[14] = system: HCT-15; experiment: NCI-60 one-dose screen, HCT-15; type: cell-based; details: Homo sapiens; HCT-15, colon cancer; single dose 10 μM; read-out: Growth inhibition %
Procedure: as §1, §2

[15] = system: ACHN; experiment: NCI-60 one-dose screen, ACHN; type: cell-based; details: Homo sapiens, renal cancer, single dose 10 μM, read-out: Growth inhibition %
Procedure: as §1, §2

[16] = system: EKVX; experiment: NCI-60 one-dose screen, EKVX; type: cell-based; details: Homo sapiens, non-small cell lung cancer, single dose 10 μM, read-out: Growth inhibition %
Procedure: as §1, §2

[17] = system: T-47D; experiment: NCI-60 one-dose screen, T-47D; type: cell-based; details: Homo sapiens, T47D, breast cancer, single dose 10 μM, read-out: Growth inhibition %
Procedure: as §1, §2

[18] = system: OVCAR-8; experiment: NCI-60 one-dose screen, OVCAR-8; type: cell-based; details: Homo sapiens; OVCAR-8, ovarian cancer; single dose 10 μM; read-out: Growth inhibition %
Procedure: as §1, §2

[19] = system: CAKI-1; experiment: NCI-60 one-dose screen, CAKI-1; type: cell-based; details: Homo sapiens; CAKI-1, renal cancer; single dose 10 μM; read-out: Growth inhibition %
Procedure: as §1, §2

[20] = system: IGROV1; experiment: NCI-60 one-dose screen, IGROV1; type: cell-based; details: Homo sapiens, IGROV-1; IGROV1, ovarian cancer; single dose 10 μM; read-out: Growth inhibition %
Procedure: as §1, §2

[21] = system: NCI-H460; experiment: NCI-60 one-dose screen, NCI-H460; type: cell-based; details: Homo sapiens; NCI-H460, non-small cell lung cancer; single dose 10 μM; read-out: Growth inhibition %
Procedure: as §1, §2

[22] = system: SR; experiment: NCI-60 one-dose screen, SR; type: cell-based; details: Homo sapiens, leukaemia, single dose 10 μM, read-out: Growth inhibition %
Procedure: as §1, §2

[23] = system: HOP-92; experiment: NCI-60 one-dose screen, HOP-92; type: cell-based; details: Homo sapiens; HOP-92, non-small cell lung cancer; single dose 10 μM; read-out: Growth inhibition %
Procedure: as §1, §2

[24] = system: PC-3; experiment: NCI-60 one-dose screen, PC-3; type: cell-based; details: Homo sapiens; PC-3, prostate cancer; single dose 10 μM; read-out: Growth inhibition %
Procedure: as §1, §2

[25] = system: OVCAR-5; experiment: NCI-60 one-dose screen, OVCAR-5; type: cell-based; details: Homo sapiens; OVCAR-5, ovarian cancer; single dose 10 μM; read-out: Growth inhibition %
Procedure: as §1, §2

[26] = system: A549-ATCC; experiment: NCI-60 one-dose screen, A549-ATCC; type: cell-based; details: Homo sapiens, non-small cell lung cancer, single dose 10 μM, read-out: Growth inhibition %
Procedure: as §1, §2

[27] = system: MCF-7; experiment: NCI-60 one-dose screen, MCF-7; type: cell-based; details: Homo sapiens, MCF7; MCF-7, breast cancer; single dose 10 μM; read-out: Growth inhibition %
Procedure: as §1, §2

[28] = system: HS 578 T; experiment: NCI-60 one-dose screen, HS 578 T; type: cell-based; details: Homo sapiens, breast cancer, single dose 10 μM, read-out: Growth inhibition %
Procedure: as §1, §2

[29] = system: RXF 393; experiment: NCI-60 one-dose screen, RXF 393; type: cell-based; details: Homo sapiens; RXF 393, renal cancer; single dose 10 μM; read-out: Growth inhibition %
Procedure: as §1, §2

[30] = system: DU-145; experiment: NCI-60 one-dose screen, DU-145; type: cell-based; details: Homo sapiens; DU-145, prostate cancer; single dose 10 μM; read-out: Growth inhibition %
Procedure: as §1, §2

[31] = system: SK-MEL-5; experiment: NCI-60 one-dose screen, SK-MEL-5; type: cell-based; details: Homo sapiens; SK-MEL-5, melanoma; single dose 10 μM; read-out: Growth inhibition %
Procedure: as §1, §2

[32] = system: UO-31; experiment: NCI-60 one-dose screen, UO-31; type: cell-based; details: Homo sapiens; UO-31, renal cancer; single dose 10 μM; read-out: Growth inhibition %
Procedure: as §1, §2

[33] = system: SW-620; experiment: NCI-60 one-dose screen, SW-620; type: cell-based; details: Homo sapiens; SW-620, colon cancer; single dose 10 μM; read-out: Growth inhibition %
Procedure: as §1, §2

[34] = system: U251; experiment: NCI-60 one-dose screen, U251; type: cell-based; details: Homo sapiens, U-251; U251, CNS cancer; single dose 10 μM; read-out: Growth inhibition %
Procedure: as §1, §2

| SMILES | inhibition at 10 µM [1] | inhibition at 10 µM [2] | inhibition at 10 µM [3] | inhibition at 10 µM [4] | inhibition at 10 µM [5] | inhibition at 10 µM [6] | inhibition at 10 µM [7] | inhibition at 10 µM [8] | inhibition at 10 µM [9] | melting point | inhibition at 10 µM [10] | inhibition at 10 µM [11] | inhibition at 10 µM [12] | inhibition at 10 µM [13] | inhibition at 10 µM [14] | inhibition at 10 µM [15] | inhibition at 10 µM [16] | inhibition at 10 µM [17] | inhibition at 10 µM [18] | inhibition at 10 µM [19] | other results |
| --- | --- | --- | --- | --- | --- | --- | --- | --- | --- | --- | --- | --- | --- | --- | --- | --- | --- | --- | --- | --- | --- |
| C1=Cc2ccccc2N(c2nnc(-c3ccccc3)o2)c2ccccc21 [Compound 5a, 2-(5 h-Dibenzo[b,f]azepin-5-yl)-5-phenyl-1,3,4-oxadiazole] | 54.2% | 16.1% | < 10% | 50.2% | < 10% | 26.1% | < 10% | < 10% | 13.6% | 209 to 211 °C | < 10% | < 10% | < 10% | < 10% | < 10% | 16.7% | < 10% | < 10% | < 10% | < 10% | inhibition at 10 µM [20]: < 10%; inhibition at 10 µM [21]: < 10%; inhibition at 10 µM [22]: < 10%; inhibition at 10 µM [23]: 18.3%; inhibition at 10 µM [24]: < 10%; inhibition at 10 µM [25]: < 10%; inhibition at 10 µM [26]: < 10%; inhibition at 10 µM [27]: 14.4%; inhibition at 10 µM [28]: < 10%; inhibition at 10 µM [29]: < 10%; inhibition at 10 µM [30]: 12.4%; inhibition at 10 µM [31]: < 10%; inhibition at 10 µM [32]: 39.4%; inhibition at 10 µM [33]: < 10%; inhibition at 10 µM [34]: 20.1% |
| Brc1ccc(-c2nnc(N3c4ccccc4C=Cc4ccccc43)o2)cc1 [Compound 5b, 2-(4-Bromophenyl)-5-(5H-dibenzo[b,f]azepin-5-yl)-1,3,4-oxadiazole] | 52.2% | < 10% | < 10% | < 10% | < 10% | 37.3% | < 10% | 15.4% | < 10% | 185 to 187 °C | 24.7% | 23.4% | < 10% | 19.6% | 66.5% | 24.8% | 27.6% | 21.5% | 28.6% | 31.9% | inhibition at 10 µM [20]: 21.6%; inhibition at 10 µM [21]: 63.5%; inhibition at 10 µM [22]: 73%; inhibition at 10 µM [23]: 33.5%; inhibition at 10 µM [24]: 48.5%; inhibition at 10 µM [25]: < 10%; inhibition at 10 µM [26]: 29.8%; inhibition at 10 µM [27]: 30.5%; inhibition at 10 µM [28]: 14.4%; inhibition at 10 µM [29]: 24.9%; inhibition at 10 µM [30]: < 10%; inhibition at 10 µM [31]: 53.2%; inhibition at 10 µM [32]: 33.5%; inhibition at 10 µM [33]: < 10%; inhibition at 10 µM [34]: 47% |
